Laboratory results taken from article PMC10870261, “Photoinduced Hydrogel-Forming Caged Peptides with Improved Solubility” (ACS Omega, 2024).
Each block holds one compound with its values, some of them ahead of it. Residues, ends and D or L forms follow the SMILES beside them. *: point of attachment. X1 = O=C(COC(=O)*)c1ccc(O)cc1

Assays:
[1] = system: A2058 human melanoma cell line; experiment: CellTiterGlo viability assay, cells in 2D monolayer or in peptide hydrogel (3D); type: cell-based; settings: HPAA 1 mM, 96 h, normalized to 2D control, n = 3
Procedure: Human melanoma cell line A2058 was obtained from the European Collection of Authenticated Cell Cultures (ECACC, Salisbury, UK) and was cultured in RPMI 1640 medium supplemented with 10% (v/v %) fetal bovine serum (Biosera Europe, Nuaillé, France), 1% L-glutamine, and 1% penicillin/streptomycin (Gibco, Invitrogen Corporation, New York, USA). Cells were propagated in standard cell culture conditions (37 °C, 5% CO2).
Peptides were dissolved in PBS (1×) at a 1.2 mM concentration. 50–50 μL of the resulting stock solution was added to a 96-well, optical bottom plate. […]
Viability tests were performed using CellTiterGlo (Promega, Madison, WI, USA) reagent to determine the quantity of viable cells in both 2D setups and in hydrogels. […] The luminescence signal was measured by a Fluoroskan FL microplate fluorometer and luminometer (Thermo Scientific, Waltham, MA, USA). […] All quantitative data are presented as the mean ± standard deviation (SD). The results were evaluated with MS Excel and OriginPro 2020 software (OriginLab Corporation, Northampton, MA, USA).
Results were evaluated using MS Excel and OriginPro 2020 software (OriginLab Corp., Northampton, MA, USA). […] Data were statistically analyzed using one-way analysis of variance followed by Tukey’s posthoc test. […]

[2] = Optical transmittance (turbidity) in PBS; type: physicochemical; settings: 300 μM in PBS (pH 7.4, 1×), 25 °C, 532 nm, after the starting point
Procedure: Transmittance was measured using an UV–vis spectrophotometer (Jasco V-650, Jasco, Cremella, Italy) in phosphate-buffered saline (PBS, pH 7.4, 1×) buffer.  Figure 1 Optical transmittance of native (nonprotected) EAK16-II peptide and caged-EAK16-II (300 μM) in PBS, 25 °C, 532 nm, 8 h. […] These turbidity measurements were conducted at a 300 μM concentration, which was also used for in vitro experiments.

[3] = system: A2058 human melanoma cell line; experiment: Fluorescence microscopy of cellular arrangement in hydrogels (acridine orange); type: cell-based; settings: A2058 cells, 96 h, acridine orange 0.1 mM, 10× magnification, Z-stacks
Procedure: Peptides were dissolved in PBS (1×) at a 1.2 mM concentration. 50–50 μL of the resulting stock solution was added to a 96-well, optical bottom plate. The plate was illuminated with an UV lamp (Sylvania 254 nm, 8 W) for 20 min, followed by the distribution of 50–50 μL of RPMI-1640 medium [supplemented with 10% (v/v %) FBS and 1% L-glutamine, 1% penicillin/streptomycin] into the wells. Then, the plate was incubated for 1 h. For the 3D microscopic imaging of the hydrogels, cells were treated with acridine orange (at 0.1 mM) and incubated for 30 min. Fluorescence measurements were carried out on a Zeiss Celldiscoverer 7 (Zeiss, Jena, Germany) using 10× magnification (Plan-Apochromat λ/0.35 NA objective with 2× tube lens) and acquisition of Z-stacks with 10 μm intervals between individual planes. The images were processed by using ZEN Blue 2.6 software (Carl Zeiss AG, Jena, Germany). Figure 4 (A) Viability of the A2058 human melanoma cell line in native EAK-16-II and caged peptide hydrogels as well as in monolayer (2D) after 96 h. Cell viability was measured using CellTiterGlo assay (Promega, Madison, WI, USA) and normalized to 2D growing cells (control cells) (normalized live cells = 100%). Data are presented as mean values ± standard deviation (SD) from three independent experiments. (B) 3D representation of cellular arrangements in both types of hydrogels. […]

[4] = cited from earlier work
Procedure: These turbidity measurements were conducted at a 300 μM concentration, which was also used for in vitro experiments.

[5] = Solubility and handling (observation during purification, spectroscopic measurement); type: physicochemical; settings: aqueous / PBS, qualitative
Procedure: To support this change in “behavior” of the caged derivative, spectroscopic (transmittance) measurements were conducted, which confirmed the suppressed aggregation compared to the nonprotected peptide (Figure 1).
Therefore, its purification and characterization could be carried out in the usual way as for peptides (e.g., RP-HPLC and LC–MS).

Compound: O=C(O)Cc1ccc(O)cc1 [HPAA, p-hydroxyphenylacetic acid]
In vitro cytotoxicity, monolayer (2D) ([1]; A2058 cells in 2D (plastic surface)): did not have any long-term toxic effect | In vitro cytotoxicity, in EAK16-II hydrogel (3D) ([1]; A2058 cells in EAK16-II (300 μM) hydrogel): did not have any long-term toxic effect

Time to "microgelatinization" (sedimentation of peptide aggregates, increase in transmittance) [2]: Around 10 min
Compound: Ac-AEAEAKAKAEAEAKAK-NH2 [EAK16-II]
Cellular arrangement (cellular aggregate formation) in hydrogel [3]: distinct cellular aggregates | Critical aggregating concentration [4]: 0.1 mg/mL

Solubility [5]: good solubility
Compound: CC(=O)N[C@@H](C)C(=O)N[C@@H](CCC(=O)O)C(=O)N[C@@H](C)C(=O)N[C@@H](CCC(=O)O)C(=O)N[C@@H](C)C(=O)N[C@@H](CCCCNC(=O)OCC(=O)c1ccc(O)cc1)C(=O)N[C@@H](C)C(=O)N[C@@H](CCCCN)C(=O)N[C@@H](C)C(=O)N[C@@H](CCC(=O)O)C(=O)N[C@@H](C)C(=O)N[C@@H](CCC(=O)O)C(=O)N[C@@H](C)C(=O)N[C@@H](CCCCNC(=O)OCC(=O)c1ccc(O)cc1)C(=O)N[C@@H](C)C(=O)N[C@@H](CCCCN)C(N)=O [caged-EAK16-II] (Ac-AEAEAK(X1)AKAEAEAK(X1)AK-NH2)
